Experimental data from ChEMBL document CHEMBL1641567, “Oxidative inactivation of the lymphoid tyrosine phosphatase mediated by both general and active site directed NO donors” (Bioorg Med Chem Lett, 2011).
The source made the active and inactive calls. The rule behind the calls is not given here. Starred links: 1 amine or outer side, 2 acyl side, 3 side chain; linkers in the order of their positions; H or OH if unused. Non-standard residues stand in square brackets, D forms with d. Residues, ends and D or L forms follow the SMILES beside them. X1 = O=NSCC[C@H](N[*:1])C(=O)[*:2]

Key:
[1] = target: T1, Tyrosine-protein phosphatase non-receptor type 22 (Homo sapiens) (UniProt Q9Y2R2); test: Oxidative inactivation of lymphoid tyrosine phosphatase assessed as NO release by ESI-MS spectrum
T1 sequence (whole entry): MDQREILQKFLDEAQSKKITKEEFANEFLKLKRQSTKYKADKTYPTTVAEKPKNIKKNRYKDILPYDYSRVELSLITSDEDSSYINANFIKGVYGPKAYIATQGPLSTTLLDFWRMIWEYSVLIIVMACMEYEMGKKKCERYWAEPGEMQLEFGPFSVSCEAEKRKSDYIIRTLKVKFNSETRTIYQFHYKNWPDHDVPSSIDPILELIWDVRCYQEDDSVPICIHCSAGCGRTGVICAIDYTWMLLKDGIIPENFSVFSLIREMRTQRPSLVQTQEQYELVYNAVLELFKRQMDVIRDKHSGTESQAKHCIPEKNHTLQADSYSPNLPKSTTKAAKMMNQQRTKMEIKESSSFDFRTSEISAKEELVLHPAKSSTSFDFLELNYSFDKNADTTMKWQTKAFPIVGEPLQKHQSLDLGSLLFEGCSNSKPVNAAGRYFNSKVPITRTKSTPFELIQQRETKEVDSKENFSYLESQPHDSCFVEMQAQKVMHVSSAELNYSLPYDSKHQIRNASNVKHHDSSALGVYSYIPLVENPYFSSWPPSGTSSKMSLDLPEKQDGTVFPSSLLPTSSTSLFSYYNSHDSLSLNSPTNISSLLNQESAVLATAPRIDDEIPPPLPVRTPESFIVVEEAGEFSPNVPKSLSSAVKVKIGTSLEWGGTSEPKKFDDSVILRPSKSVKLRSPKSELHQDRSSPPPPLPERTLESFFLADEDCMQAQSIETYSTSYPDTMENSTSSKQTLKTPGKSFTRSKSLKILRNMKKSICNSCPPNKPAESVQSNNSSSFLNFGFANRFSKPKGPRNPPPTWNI

[2] = target: T1, Tyrosine-protein phosphatase non-receptor type 22 (Homo sapiens); test: Oxidative competitive inactivation of lymphoid tyrosine phosphatase by Lineweaver-Burk plot
[3] = target: T1, Tyrosine-protein phosphatase non-receptor type 22 (Homo sapiens); test: Oxidative inactivation of lymphoid tyrosine phosphatase by DiFMUP assay in presence of L-cysteine
[4] = target: T2, Tyrosine-protein phosphatase non-receptor type 22 (Homo sapiens, UniProt Q9Y2R2); test: (§1) Oxidative inactivation of lymphoid tyrosine phosphatase by DiFMUP assay
T2 sequence (Q9Y2R2 whole entry): T1 sequence (whole entry)

[5] = target: T1, Tyrosine-protein phosphatase non-receptor type 22 (Homo sapiens); test: as §1
[6] = target: T1, Tyrosine-protein phosphatase non-receptor type 22 (Homo sapiens); test: Oxidative inactivation of lymphoid tyrosine phosphatase at 1 to 100 uM by DiFMUP assay; details: TDE = time-dependent effect

- Activity [1]: Active
- Activity [2]: Active
- Activity [3]: inactive
- Ki [4]: 7 µM
- Activity [5]: Dose-dependent effect
- Kinact [5]: 0.0472 min⁻¹
- Activity [6]: tde
SMILES: CC[C@H](C)[C@H](NC(=O)[C@H](CC(C)C)NC(=O)[C@H](CCCNC(=N)N)NC(=O)[C@H](C)NC(C)=O)C(=O)N[C@@H](CCC(=O)O)C(=O)N[C@@H](CC(=O)O)C(=O)N[C@@H](CC(N)=O)C(=O)N[C@@H](CCC(=O)O)C(=O)N[C@@H](CCSN=O)C(=O)N[C@H](C(=O)N[C@@H](C)C(=O)N[C@@H](CCCNC(=N)N)C(=O)N[C@@H](CCC(=O)O)C(=O)NCC(N)=O)[C@@H](C)O (Ac-ARLIEDNE[X1]TAREG-NH2)
